Experiment [1] addresses purified Z-AAT protein from human plasma (Homo sapiens (Human), UniProt P01009, E366K). The experiment can be described thus: Biochemical Assay (Z-AAT Elastase Activity Assay). Conditions: purified Z-AAT pre-incubated with compound 1 hour, then human neutrophil elastase and fluorescent substrate. The source says: B. Biochemical Assay (Z-AAT Elastase Activity Assay)
This assay measured the modulation of Compounds 1-227 on Z-AAT SERpIN activity using purified Z-AAT protein and purified human neutrophil elastase (hNE). Normally, when active monomeric Z-AAT encounters a protease such as trypsin or elastase, it forms a 1:1 covalent “suicide” complex in which both the AAT and protease are irreversibly inactivated. However, compounds binding to Z-AAT can lead to a decrease in SERpIN activity. In such cases, when a protease encounters compound-bound Z-AAT, the protease cleaves and inactivates Z-AAT without itself being inactivated.
Reagents • PBS buffer (media prep)+0.01% BRIJ35 detergent (Calbiochem catalog #203728) Opti-MEM media (Fisher 11058-021) • Human neutrophil elastase (hNE, Athens Research #16-14-051200) • 3.4 μM stock (0.1 mg/mL) prepared in 50 mM Na Acetate, pH 5.5, 150 mM NaCl, stored at −80° C. • Elastase substrate V (ES V, fluorescent peptide substrate MeOSuc-Ala-Ala-Pro-Val-AMC, Calbiochem catalog #324740) • 20 mM stock in DMSO, stored at −20° C. • Purified Z-AAT protein from human plasma; • 12.9 μM (0.67 mg/mL) Z-AAT Vertex Cambridge Sample 4942, from patient • #061-SSN, stored at −80 C
Plates • Corning 4511 (384 well black low volume)
Instruments • PerkinElmer® EnVision™
Pre-Incubation of Z-AAT with Compounds • 1. 7.5 μL of Z-AAT (20 nM) was incubated with compounds 1-227 in a GCA plate for 1 hour at room temperature
Addition of hNE • 1. 7.5 ul of HNE solution (3 nM in PBS+0.01% BRIJ35) added into GCA plate • 2. Incubate plate for 30 minutes to allow Z-AAT/HNE suicide complex formation.
Addition of Substrate and Read Plate on PE Envision • 1. 7.5 μL of substrate (300 μM solution of elastase substrate (ES V) in PBS+0.01% BRIJ35) dispensed per well into GCA plate • 2. Immediately read on Envision.

Experiment [2] concerns the target NL20 human bronchial epithelial cells expressing human Z-AAT (Homo sapiens (Human), UniProt P01009, E366K). The experiment can be described thus: AAT Function Assay (MSD Assay NL20-SI Cell Line). Particulars: functionally active AAT (AAT-hNE complex, MSD) in supernatant of NL20 cells expressing human Z-AAT; read-out: NL20 Functional EC50. The experiment is classed as cell-based. The protocol:
A. AAT Function Assay (MSD Assay NL20-SI Cell Line)
Alpha-1 antitrypsin (AAT) is a SERpIN (serine protease inhibitor) that inactivates enzymes by binding to them covalently. This assay measured the amount of functionally active AAT in a sample in the presence of the disclosed Compounds 1-227 by determining the ability of AAT to form an irreversible complex with human neutrophil Elastase (hNE). In practice, the sample (cell supernatant, blood sample, or other) was incubated with excess hNE to allow AAT-Elastase complex to be formed with all functional AAT in the sample. This complex was then captured to a microplate coated with an anti-AAT antibody. The complex captured to the plate was detected with a labeled anti-Elastase antibody and quantitated using a set of AAT standards spanning the concentration range present in the sample. Meso Scale Discovery (MSD) plate reader, Sulfo-tag labeling, and microplates were used to provide high sensitivity and wide dynamic range.
Instrument(S): • Meso Sector S600 • Bravo • Washer dispenser • Multidrop Combi
Day 1 Cell Culture • 1. Harvest NL20 human bronchial epithelial cells expressing human Z-AAT in OptiMEM™ containing Pen/Strep (P/S) • 2. Seed at 16,000 cells/well in 30 μL (384 well plate) • 3. Centrifuge plates briefly up to speed (1200 rpm) and place into 37° C. incubator overnight
Day 2: Compound Addition and Coating Plates with Capture Antibody
Compound Addition: • 1. Dispense 40 μL of OptiMEM™ (P/S) with doxycycline (1:1000 stock=0.1 μM final) to each well of the compound plate using a multidrop Combi in hood • 2. Remove cell plate from incubator, flip/blot and take immediately to Bravo to transfer compounds • 3. Return plates to incubator overnight
Coat MSD Plates • 1. Dilute capture antibody (Polyclonal Goat anti-AAT) to 5 μg/mL (1:200) in PBS (no BSA). • 2. Dispense 25 μL of diluted capture antibody into all wells of MSD 384-well High Bind plate using the Multidrop equipped with a standard cassette. • 3. Incubate overnight at 4° C.
Prepare Blocker A (BSA) Solutions • 1. Prepare solution of 5% MSD Blocker A (BSA) following the manufacturer's instructions. • 2. Further dilute the 5% MSD Blocker A in PBS to 1% (Blocker A) as needed.
Block Plates • 1. Wash plate 1× with 50 μL Wash buffer (PBS+0.5% Tween 20), and adds 35 μL 5% Block A buffer to block non-specific binding on washer dispenser • 2. Rotate plates on shaker for 1 hour at 600 rpm
Prepare M-AA T Standards • 1. Dilute M-AAT stock to 1.6 μg/mL in 1% BSA Blocker A (Stock in −70° C.); then prepare 12×1:2 serial dilutions in 1% Blocker A • 2. The top starting final concentration on MSD plate is 320 ng/mL. These dilutions correspond to a final concentration of 320, 160, 80, 40, 20, 10, 5, 2.5, 1.25, 0.625, 0.312, 0.156 ng/mL.
Dilution Plate • 1. Add 80 μL of 1% Assay buffer to all wells except columns 1/24 (standards) with Multidrop Combi • 2. Add diluted standards to columns 1 and 24 • 3. Centrifuge dilution plates 1200 rpm briefly
Cell Plate • 1. Aspirate columns which will have the standards from the cell plates in the hood using 16-pin aspirator
Prepare Human Neutrophil Elastase (hNE) • 1. Prepare 1 μg/mL Human Neutrophil Elastase by diluting in 1% Blocker A. • a. Small 100 μg vial—add 1 mL PBS (100 μg/mL) • i. This can then be diluted 1:100 in 1% Assay Buffer for a final 1 μg/mL concentration
MSD—add hNE (20 μL/well) • 1. After the MSD plate has blocked for at least 1 hour, wash plate 1× with 50 μL Wash buffer (PBS+0.5% Tween 20) and then add 20 μL hNE to each well
Bravo—Cell Plate—Dilution Plate—MSD Plate
Using the Bravo aspirate 10 μL from the cell plate, transfer to the dilution plate (9-fold dilution) • 1. Mix 25 μL 3×, then aspirate 5 μL, transfer to MSD plate (5-fold dilution) • 2. Mix 10 μL 3×. Total dilution is 45 fold. • 3. Shake plates at 600 rpm for 1.5 hours
Add Functional Detection hNE Antibody • 1. Wash plate 1× with wash buffer • 2. […]

Chain of NL20 human bronchial epithelial cells expressing human Z-AAT (P01009 25-418 E366K limits assumed): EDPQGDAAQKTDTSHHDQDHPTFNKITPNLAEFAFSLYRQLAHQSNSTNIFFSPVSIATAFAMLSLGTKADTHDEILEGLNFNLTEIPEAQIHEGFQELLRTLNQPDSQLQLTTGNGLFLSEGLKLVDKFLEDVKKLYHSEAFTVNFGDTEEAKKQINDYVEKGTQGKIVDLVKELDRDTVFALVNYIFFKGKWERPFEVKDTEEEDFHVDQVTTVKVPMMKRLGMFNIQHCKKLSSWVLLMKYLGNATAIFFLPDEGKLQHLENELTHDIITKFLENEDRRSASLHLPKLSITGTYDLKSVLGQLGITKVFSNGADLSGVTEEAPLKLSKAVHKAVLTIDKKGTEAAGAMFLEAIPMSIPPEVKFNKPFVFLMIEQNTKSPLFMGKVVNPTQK
Chain of purified Z-AAT protein from human plasma (P01009 25-418 E366K limits assumed): as above

What is called IC50 is the concentration needed to halve the response being measured. The term EC50 denotes the concentration needed to bring the measured effect to its halfway point. On to `Cc1cc(-n2c(C(C)C)c([C@@H]3COCC3C(=O)O)c3cc(O)ccc32)ccc1F` (mixture of isomers) [Compound 82], for which the IC50 in experiment [1] was greater than 30000 nM. For the same compound, the EC50 in experiment [2] is greater than 2000 nM.
The like results for `Cc1cc(-n2c(C(C)C)c([C@H]3CC[C@@H](C(=O)O)C3)c3cc(O)ccc32)ccc1F` (racemic) [Compound 74] were, in that order, greater than 30000 nM and greater than 2000 nM.
The corresponding values for `Cc1cc(-n2c(C(C)C)c([C@H]3CC[C@H](C(=O)O)C3)c3cc(O)ccc32)ccc1F` (racemic) [Compound 79] are greater than 5000 nM and 500 to 2000 nM.
The like results for `Cc1cc(-n2c(C(C)C)c([C@@H]3COC[C@@H]3C(=O)O)c3cc(O)ccc32)ccc1F` (racemic) [Compound 83] were, in that order, greater than 30000 nM and greater than 2000 nM.
Regarding `Cc1cc(-n2c(C3CCOCC3)c([C@H]3CCC[C@@H](CC(=O)O)C3)c3cc(O)ccc32)ccc1F` (racemic) [Compound 105, cis-2-(3-(1-(4-fluoro-3-methylphenyl)-5-hydroxy-2-(tetrahydro-2H-pyran-4-yl)-1H-indol-3-yl)cyclohexyl)acetic acid], the IC50 in experiment [1] was greater than 30000 nM. The EC50 in experiment [2] was 500 to 2000 nM.
For the compound `CCC(O)c1c(C#N)c2cc(O)ccc2n1-c1ccc(F)cc1` (racemic) [Compound 189, 1-(4-fluorophenyl)-5-hydroxy-2-(1-hydroxypropyl)indole-3-carbonitrile], the IC50 in experiment [1] is greater than 30000 nM. In addition, in experiment [2], the EC50 was greater than 2000 nM.
The corresponding values for `CCC(OC)c1c(C#N)c2cc(O)ccc2n1-c1ccc(F)cc1` (racemic) [Compound 190, 1-(4-fluorophenyl)-5-hydroxy-2-(1-methoxypropyl)indole-3-carbonitrile] are greater than 5000 nM and 500 to 2000 nM.
The corresponding values for `Cc1cc(-n2c(C3CCOCC3)c([C@H]3C[C@@H]3C(=O)O)c3cc(O)ccc32)ccc1F` (relative stereo) [Compound 124, trans-2-[1-(4-fluoro-3-methyl-phenyl)-5-hydroxy-2-tetrahydropyran-4-yl-indol-3-yl]cyclopropanecarboxylic acid] are greater than 30000 nM and greater than 2000 nM.
The like results for `O=C(O)[C@H]1CCC[C@@H](c2c(C3CCOCC3)n(-c3ccc(F)c(F)c3)c3ccc(O)cc23)C1` (relative stereo) [Compound 136, cis-3-(1-(3,4-difluorophenyl)-5-hydroxy-2-(tetrahydro-2H-pyran-4-yl)-1H-indol-3-yl)cyclohexane-1-carboxylic acid] were, in that order, greater than 30000 nM and 500 to 2000 nM.
With `Cc1cc(-n2c(C(C)C)c(CC(C)C(=O)O)c3cc(O)ccc32)ccc1F` (single isomer, unassigned) [Compound 101], the IC50 in experiment [1] is greater than 30000 nM. For the same compound, the EC50 in experiment [2] is greater than 2000 nM.
For `Cc1cc(-n2c(C(C)C)c(CC(C)C(=O)O)c3cc(O)ccc32)ccc1F` (single isomer, unassigned) [Compound 102], the IC50 in experiment [1] is greater than 30000 nM. Besides, the EC50 in experiment [2] was greater than 2000 nM.
The corresponding values for `Cc1cc(-n2c(C(C)C)c(C3CC(F)(C(=O)O)C3)c3cc(O)ccc32)ccc1F` (single isomer, unassigned) [Compound 150] are greater than 5000 nM and 500 to 2000 nM.
Consider `Cc1cc(-n2c(C3CCOCC3)c([C@H]3CC[C@H](C(=O)O)CC3)c3cc(O)ccc32)ccc1F` [Compound 1, trans-4-(1-(4-fluoro-3-methylphenyl)-5-hydroxy-2-(tetrahydro-2H-pyran-4-yl)-1H-indol-3-yl)cyclohexane-1-carboxylic acid], for which the IC50 in experiment [1] was greater than 30000 nM.
`Cc1cc(-n2c(C3CCOCC3)c(C3CCCC(C(=O)O)C3)c3cc(O)ccc32)ccc1F` (stereo not shown) [Compound 3]: the IC50 in experiment [1] was greater than 30000 nM. Moreover, in experiment [2], the EC50 was in the range of 500 to 2000 nM.
For the compound `Cc1cc(-n2c(C3CCOCC3)c(CC34CC(C(=O)O)(C3)C4)c3cc(O)ccc32)ccc1F` [Compound 4], the IC50 in experiment [1] is greater than 30000 nM. Also, the EC50 in experiment [2] is greater than 2000 nM.
As to `Cc1cc(-n2c(C(C)C)c([C@H]3C[C@@H]3C(=O)O)c3cc(O)c(F)cc32)ccc1F` [Compound 129], the EC50 in experiment [2] fell in the range of 500 to 2000 nM.
On the same count and under the same terms, in the case of `Cc1cc(-n2c(C(C)C)c(C3CC3(C)C(=O)O)c3cc(O)ccc32)ccc1F` (stereo not shown) [Compound 130] it was 500 to 2000 nM.
The same measure, in the same setting: next, `Cc1cc(-n2c(C(C)C)c(-c3ccc(C(=O)O)cc3)c3cc(O)ccc32)ccc1F` [Compound 167]: less than 500 nM; `Cc1cc(-n2c(C(C)C)c(-c3ccc(C(=O)O)cc3C)c3cc(O)ccc32)ccc1F` [Compound 170]: 500 to 2000 nM.
Consider `Cc1c(C#N)c2cc(O)ccc2n1-c1ccc(F)cc1` [Compound 182, 1-(4-fluorophenyl)-5-hydroxy-2-methyl-1H-indole-3-carbonitrile], for which the EC50 in experiment [2] is greater than 2000 nM.
Still for that read-out and setting: in the case of `Cc1c(C(C)C#N)c2cc(O)ccc2n1-c1ccc(F)cc1` (stereo not shown) [Compound 183, 2-(1-(4-fluorophenyl)-5-hydroxy-2-methyl-1H-indol-3-yl)propanenitrile] it was greater than 2000 nM.
With `Cc1cc(-n2c(C(C)C)c([C@H]3C[C@H](c4n[nH]c(=O)o4)C3)c3cc(O)ccc32)ccc1F` [Compound 221, Trans-5-[3-[1-(4-fluoro-3-methyl-phenyl)-5-hydroxy-2-isopropyl-indol-3-yl]cyclobutyl]-3H-1,3,4-oxadiazol-2-one], the EC50 in experiment [2] was greater than 2000 nM.
Still for that read-out and setting: next, `Cc1cc(-n2c(C(C)C)c([C@H]3C[C@@H](c4n[nH]c(=O)o4)C3)c3cc(O)ccc32)ccc1F` [Compound 222, cis-5-[3-[1-(4-fluoro-3-methyl-phenyl)-5-hydroxy-2-isopropyl-indol-3-yl]cyclobutyl]-3H-1,3,4-oxadiazol-2-one]: greater than 2000 nM.
